From US11952364B2, “TRK inhibitors useful as anticancer drugs” (TYLIGAND BIOSCIENCE (SHANGHAI) LIMITED, priority 2018, dated 2024)

test system: Ba/F3 ETV6-NTRK2 cells; assay: Proliferation of Ba/F3 ETV6-NTRK2 cells (CellTiter-Glo); format: cell-based; conditions: Mus musculus, BaF3; Table 2; 72 hours
Excerpt: Ba/F3 ETV6-NTRK2 cell is a stable transgenic cell line constructed by KYinno Biotechnology Co., Ltd. on mouse primary B cell Ba/F3 wherein NTRK2 is highly expressed and fused with ETV6 to form ETV6-NTRK2. • [Test method]: Promega's CellTiter-Glo® Luminescent Cell Viability Assay kit was used to evaluate the inhibitory activity of the compounds on the proliferation of Ba/F3 ETV6-NTRK2C cells. • [Instrument]: Spectramax M3 multifunctional microplate reader from Molecular Devices. • [Test materials]: Ba/F3 ETV6-NTRK2 cell line (constructed by KYinno Biotechnology Co., Ltd. (Beijing)), 96-well transparent flat-bottomed black-walled cell culture plate (Corning, cat #3603), RPMI-1640 media (GE, cat #SH30027.01), fetal bovine serum FBS (Thermo Fisher, cat #10099-141), CellTiter-Glo® Luminescent Cell Viability Assay kit (Promega, cat #G7572), PBS (Solarbio, cat #P1020), DMSO (Sigma, cat #D2650). • [Experimental procedure]: When resuscitating Ba/F3 ETV6-NTRK2 cells, the freezing tube was quickly shaken in a 37° C. water bath to melt within 1 minute. The thawed cell suspension was mixed uniformly with RPMI1640 medium containing 10% FBS, centrifuged at 1000 rpm for 5 minutes, and the supernatant discarded. 5 mL of complete medium (RPMI1640 medium with 10% FBS) was taken to resuspend the cell pellets, charged into a cell culture flask with a bottom area of 25 cm^2, and incubated in a cell incubator at 37° C., 95% humidity and 5% CO2. Cells were allowed to passage when the number of cells reached about 10^6 cells/mL. For cell passage, the old cell suspension was directly pipetted evenly, 1/5 of the cell suspension was kept, 4 mL of new complete medium was added, and after pipetting evenly, the cell flask was placed in the cell incubator for further culturing. Cell plating was performed when the number of cells reached about 10^6 cells/mL again. For cell plating, 1/5 of the cell suspension was kept for further culturing as in the cell passage method, and the remaining 4/5 of the cell suspension was placed in a 15 mL centrifuge tube, detected for cell viability by Trypan blue exclusion method to ensure that cell viability was above 90%. A cell suspension with a density of 5.56×10^4 viable cells/mL was prepared with complete medium, and 90 μL of such cell suspension was added to a 96-well cell culture plate to obtain a cell density of 5000 viable cells/mL in the cell culture plate. A control group containing no cells, no compound and only complete medium (i.e, culture medium control) and a control group containing no compound but containing cells (i.e, cell control) were set. The cell plate was placed in a cell incubator overnight. The 10 mM compound stock solution in DMSO was first serially diluted with DMSO at a dilution factor of 3.16 times, to obtain 9 concentrations, and the 10th concentration was set as DMSO control without compound. Then, PBS was used to dilute the DMSO solutions of compounds of different concentrations, at a dilution factor of 100 times, so that the DMSO concentration in the compound solution of each concentration was 1%. Finally, 10 μL of each of the above solutions was added to the corresponding cell culture plate, so that the initial compound concentration was 10 μM, with the remaining concentrations being successively diluted at a dilution factor of 3.16 times, and the DMSO content in the cell culture plate was 0.1%. The cell plate was placed in a cell incubator and cultured for 72 hours. For endpoint detection, the CellTiter-Glo reagent was melted, and the cell plate was moved to room temperature to equilibrate for 30 minutes, added with 100 μL of CellTiter-Glo for each well, and shaken on an orbital shaker for 5 minutes to fully lyse the cells. The plate was kept at room temperature for 20 minutes to stabilize the luminescence signal, and the luminescence value of each well was scanned with a multi-functional microplate reader at full wavelength. • [Test sample]

SMILES | IC50
Cn1ncc2cc(Oc3ccc(NC(=O)c4ccc(C(F)(F)F)n(-c5ccc(F)cc5)c4=O)cc3F)c(-c3cn[nH]c3)cc21 [Example 1, N-(3-fluoro-4-(1-methyl-6-(1H-pyrazol-4-yl)-1H-indazol-5-yloxy)phenyl)-1-(4-fluorophenyl)-6-trifluoromethyl-2-oxo-1,2-dihydmpyridine-3-carboxamide monomethanesulfonate] | 428 nM
Cn1ncc2cc(Oc3ccc(NC(=O)c4ccc(C5CC5)n(-c5ccc(F)cc5)c4=O)cc3F)c(-c3cn[nH]c3)cc21 [Example 2, N-(3-fluoro-4-(1-methyl-6-(1H-pyrazol-4-yl)-1H-indazol-5-yloxy)phenyl)-1-(4-fluorophenyl)-6-cyclopropyl-2-oxo-1,2-dihydmpyridine-3-carboxamide] | 269 nM
CCn1ncc2cc(Oc3ccc(NC(=O)c4ccc(C)n(-c5ccc(F)cc5)c4=O)cc3F)c(-c3cn[nH]c3)cc21 [Example 3, N-(3-fluoro-4-(1-ethyl-6-(1H-pyrazol-4-yl)-1H-indazol-5-yloxy)phenyl)-1-(4-fluorophenyl)-6-methyl-2-oxo-1,2-dihydmpyridine-3-carboxamide] | 341 nM
Cc1ccc(C(=O)Nc2ccc(Oc3cc4cnn(C(C)C)c4cc3-c3cn[nH]c3)c(F)c2)c(=O)n1-c1ccc(F)cc1 [Example 4, N-(3-fluoro-4-(1-isopropyl-6-(1H-pyrazol-4-yl)-1H-indazol-5-yloxy)phenyl)-1-(4-fluorophenyl)-6-methyl-2-oxo-1,2-dihydmpyridine-3-carboxamide] | 876 nM
CCc1ccc(C(=O)Nc2ccc(Oc3cc4cnn(C)c4cc3-c3cn[nH]c3)c(F)c2)c(=O)n1-c1ccc(F)cc1 [Example 5, N-(3-fluoro-4-(1-methyl-6-(1H-pyrazol-4-yl)-1H-indazol-5-yloxy)phenyl)-1-(4-fluorophenyl)-6-ethyl-2-oxo-1,2-dihydropyridine-3-carboxamide] | 128 nM
CC(C)c1ccc(C(=O)Nc2ccc(Oc3cc4cnn(C)c4cc3-c3cn[nH]c3)c(F)c2)c(=O)n1-c1ccc(F)cc1 [Example 6, N-(3-fluoro-4-(1-methyl-6-(1H-pyrazol-4-yl)-1H-indazol-5-yloxy)phenyl)-1-(4-fluorophenyl)-6-isopropyl-2-oxo-1,2-dihydropyridine-3-carboxamide] | 209 nM
O=C(Nc1cnn2ccc(N3CCC[C@@H]3c3cc(F)ccc3F)nc12)N1CC[C@H](O)C1 [LOXO-101, Larotrectinib, reference compound] | 69 nM
Cc1ccc(C(=O)Nc2ccc(Oc3cc4cnn(C)c4cc3-c3cn[nH]c3)c(F)c2)c(=O)n1-c1ccc(F)cc1 [Merestinib, reference compound] | 211 nM

test system: MKN45 cells; assay: Proliferation of MKN45 cells; format: cell-based; conditions: Homo sapiens, MKN-45; Table 8
Experimental: MKN45 is a human poorly differentiated gastric cancer cell line with high MET expression. Cell proliferation experiments were performed according to literature methods (Zhang, D. et al. Bioorg. Med. Chem. 2013, 21, 6804; Riss, T. L.; Moravec, R. A.; Niles, A. L.; et al. Cell Viability Assays 2013 May 1 [Updated 2016 Jul. 1]. In: Sittampalam, G. S.; Grossman, A.; Brimacombe, K.; et al., editors. Assay Guidance Manual [Internet]. Bethesda (MD): Eli Lilly & Company and the National Center for Advancing Translational Sciences; 2004-. Available from: https://www.ncbi.nlm.nih.gov/books/NBK144065/).

SMILES | IC50
CSc1ccc(C(=O)Nc2ccc(Oc3cc4cnn(C)c4cc3-c3cn[nH]c3)c(F)c2)c(=O)n1-c1ccc(F)cc1 [Example 11, N-(3-fluoro-4-(1-methyl-6-(1H-pyrazol-4-yl)-1H-indazol-5-yloxy)phenyl)-1-(4-fluorophenyl)-6-methylthio-2-oxo-1,2-dihydropyidine-3-carboxamide] | 12 nM
COc1ccc(C(=O)Nc2ccc(Oc3cc4cnn(C)c4cc3-c3cn[nH]c3)c(F)c2)c(=O)n1-c1ccc(F)cc1 [Example 12, N-(3-fluoro-4-(1-methyl-6-(1H-pyrazol-4-yl)-1H-indazol-5-yloxy)phenyl)-1-(4-fluorophenyl)-6-methoxy-2-oxo-1,2-dihydropyridine-3-carboxamide] | 4 nM
CCOc1ccc(C(=O)Nc2ccc(Oc3cc4cnn(C)c4cc3-c3cn[nH]c3)c(F)c2)c(=O)n1-c1ccc(F)cc1 [Example 14, N-(3-fluoro-4-(1-methyl-6-(1H-pyrazol-4-yl)-1H-indazol-5-yloxy)phenyl)-1-(4-fluorophenyl)-6-ethoxy-2-oxo-12-dihydropyridine-3-carboxamide] | 11 nM
CC(C)Oc1ccc(C(=O)Nc2ccc(Oc3cc4cnn(C)c4cc3-c3cn[nH]c3)c(F)c2)c(=O)n1-c1ccc(F)cc1 [Example 16, N-(3-fluoro-4-(1-methyl-6-(1H-pyrazol-4-yl)-1H-indazol-5-yloxy)phenyl)-1-(4-fluorophenyl)-6-isopropoxy-2-oxo-1,2-dihydropyridine-3-carboxamide] | 9 nM
O=C(Nc1cnn2ccc(N3CCC[C@@H]3c3cc(F)ccc3F)nc12)N1CC[C@H](O)C1 [LOXO-101, Larotrectinib, reference compound] | > 10000 nM
Cc1ccc(C(=O)Nc2ccc(Oc3cc4cnn(C)c4cc3-c3cn[nH]c3)c(F)c2)c(=O)n1-c1ccc(F)cc1 [Merestinib, reference compound] | 19 nM
